Results as given in BindingDB's records for doi:10.1016/j.bmc.2013.03.035 (University of Poitiers, 2013).
pIC50: −log10 of the molar value.

Experiment: Inhibition of bovine liver beta-glucosidase

pIC50: 3.31
SMILES: CC[C@@H]1NC[C@@H](O)[C@@H](O)[C@H](O)[C@H]1O
